Assay results taken from patent publication US11142515B2, “Pyrazolyl-ureas as kinase inhibitors” (RESPIVERT LIMITED, priority 2014, dated 2021).

Experiments:
p38MAPKγ (MAPK12) = target: T1, p38MAPKγ (MAPK12) (Homo sapiens, UniProt P53778); test: p38 MAPKγ enzyme inhibition (Z-LYTE FRET); format: biochemical; conditions: Table 2B, unit inferred; read-out: p38 MAPKγ (Enzyme Profile)
T1 construct: purchased Life Technologies
T1 sequence (P53778 1-367): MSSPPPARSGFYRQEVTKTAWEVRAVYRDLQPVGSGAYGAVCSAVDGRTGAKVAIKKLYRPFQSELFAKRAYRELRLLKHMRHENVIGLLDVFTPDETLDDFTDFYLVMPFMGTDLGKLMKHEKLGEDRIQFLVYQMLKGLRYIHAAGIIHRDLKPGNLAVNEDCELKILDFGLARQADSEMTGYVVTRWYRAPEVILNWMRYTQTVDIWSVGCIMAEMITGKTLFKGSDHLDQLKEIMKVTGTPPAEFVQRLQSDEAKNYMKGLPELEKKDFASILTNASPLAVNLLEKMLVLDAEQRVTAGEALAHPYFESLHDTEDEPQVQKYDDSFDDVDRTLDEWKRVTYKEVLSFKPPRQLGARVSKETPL
Procedure, shortened: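 Enzyme (added at 800 ng/mL) was preincubated 2 h at RT with compound (solutions of 40 to 0.0012 μg/mL), then FRET peptide (8 μM) and ATP (400 μM), both as added, were reacted 1 h at RT. Protease development followed for 1 h; phosphorylation was read as the coumarin/fluorescein emission ratio.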

[1] = target: T2, p38 MAPKα isoform (MAPK14) (Homo sapiens, UniProt Q16539); test: p38 MAPKα enzyme inhibition (Z-LYTE FRET); format: biochemical; conditions: Table 2B, unit inferred; read-out: p38 MAPKα (Enzyme Profile)
T2 construct: purchased Life Technologies
T2 sequence (Q16539 whole entry, canonical isoform): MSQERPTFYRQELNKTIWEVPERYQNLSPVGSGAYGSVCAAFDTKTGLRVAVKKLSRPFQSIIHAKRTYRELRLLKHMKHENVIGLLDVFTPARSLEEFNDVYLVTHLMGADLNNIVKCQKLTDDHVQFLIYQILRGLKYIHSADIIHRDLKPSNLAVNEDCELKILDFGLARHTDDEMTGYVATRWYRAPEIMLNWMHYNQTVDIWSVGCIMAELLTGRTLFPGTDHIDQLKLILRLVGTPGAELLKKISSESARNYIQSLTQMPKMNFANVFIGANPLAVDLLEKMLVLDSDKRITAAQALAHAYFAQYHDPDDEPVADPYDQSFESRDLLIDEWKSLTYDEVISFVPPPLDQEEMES
Procedure, shortened: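 Activity was measured indirectly as phosphorylation of a MAPKAP-K2-derived FRET peptide. Enzyme (added at 40 ng/mL) was preincubated 2 h at RT with compound (added solutions 40–0.0012 μg/mL).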

Row | IC50 (p38MAPKγ (MAPK12)) [nM] | IC50 [1] [nM] | SMILES
1 | 245 | 15 | COCc1cnc(Nc2cc(COc3ccc(NC(=O)Nc4cc(C(C)(C)C)nn4-c4cccc(C)c4)c4ccccc34)ccn2)cn1 [Example 195, 1-(3-(tert-butyl)-1-(m-tolyl)-1H-pyrazol-5-yl)-3-(4-((2-((5-(methoxymethyl)pyrazin-2-yl)amino)pyridin-4-yl)methoxy)naphthalen-1-yl) urea]
2 | 74 | < 0.42 | Cc1ccc(-n2nc(C(C)(C)C)cc2NC(=O)Nc2ccc(OCc3ccnc(Nc4cnc(C(=O)NCCN(C)C)cn4)c3)c3ccccc23)cc1 [Example 268, 5-((4-(((4-(3-(3-(tert-butyl)-1-(p-tolyl)-1H-pyrazol-5-yl)ureido)naphthalen-1-yl)oxy)methyl)pyridin-2-yl)amino)-N-(2-(dimethylamino)ethyl) pyrazine-2-carboxamide]
3 | > 15600 | 89 | CCc1cncc(Nc2cc(COc3ccc(NC(=O)Nc4cc(C(C)(C)C)nn4-c4cc(C)cc(C)c4)c4ccccc34)ccn2)n1 [Example 212, 1-(3-(tert-butyl)-1-(3,5-dimethylphenyl)-1H-pyrazol-5-yl)-3-(4-((2-((6-ethyl-pyrazin-2-yl)amino)pyridin-4-yl)methoxy)naphthalen-1-yl)urea]
4 | 401 | 15 | COc1cccc(-n2nc(C(C)(C)C)cc2NC(=O)Nc2ccc(OCc3ccnc(Nc4cnc(C(=O)N5CCCC5)cn4)c3)c3ccccc23)c1 [Example 216, 1-(3-(tert-butyl)-1-(3-methoxyphenyl)-1H-pyrazol-5-yl)-3-(4-((2-((5-(pyrrolidine-1-carbonyl)pyrazin-2-yl)amino)pyridin-4-yl)methoxy)naphthalen-1-yl)urea]
5 | 49 | 12 | Cc1ccc(-n2nc(C(C)(C)C)cc2NC(=O)Nc2ccc(OCc3ccnc(Nc4cncc(CCO)n4)c3)c3ccccc23)cc1 [Example 171, 1-(3-(tert-butyl)-1-(p-tolyl)-1H-pyrazol-5-yl)-3-(4-((2-((6-(2-hydroxyethyl)pyrazin-2-yl)amino)pyridin-4-yl)methoxy)naphthalen-1-yl)urea]
6 | > 15900 | 13 | CSc1ccc(-n2nc(C(C)(C)C)cc2NC(=O)Nc2ccc(OCc3ccnc(Nc4cnccn4)c3)c3ccccc23)cc1 [Example 149, 1-(3-(tert-butyl)-1-(4-(methylthio)phenyl)-1H-pyrazol-5-yl)-3-(4-((2-(pyrazin-2-ylamino)pyridin-4-yl)methoxy)naphthalen-1-yl)urea]
7 | 2820 | 23 | CCOc1cncc(Nc2cc(COc3ccc(NC(=O)Nc4cc(C(C)(C)C)nn4-c4ccc(C)cc4)c4ccccc34)ccn2)n1 [Example 116, 1-(3-(tert-butyl)-1-(p-tolyl)-1H-pyrazol-5-yl)-3-(4-((2-((6-ethoxypyrazin-2-yl)amino)pyridin-4-yl)methoxy)naphthalen-1-yl)urea]
8 | 77 | 20 | COCCCc1cncc(Nc2cc(COc3ccc(NC(=O)Nc4cc(C(C)(C)C)nn4-c4ccc(C)cc4)c4ccccc34)ccn2)n1 [Example 153, 1-(3-(tert-butyl)-1-(p-tolyl)-1H-pyrazol-5-yl)-3-(4-((2-((6-(3-methoxypropyl)pyrazin-2-yl)amino)pyridin-4-yl)methoxy)naphthalen-1-yl)urea]
9 | 146 | 1.2 | Cc1ccc(-n2nc(C(C)(C)C)cc2NC(=O)Nc2ccc(OCc3ccnc(Nc4cnc(C(=O)N5CC[C@@H](N(C)C)C5)cn4)c3)c3ccccc23)cc1 [Example 259, (R)-1-(3-(tert-butyl)-1-(p-tolyl)-1H-pyrazol-5-yl)-3-(4-((2-((5-(3-(dimethylamino)pyrrolidine-1-carbonyl)pyrazin-2-yl)amino)pyridin-4-yl)methoxy)naphthalen-1-yl)urea]
10 | > 15000 | 435 | COCC#Cc1cncc(Nc2cc(COc3ccc(NC(=O)Nc4cc(C(C)(C)C)nn4-c4ccc(C)cc4)c4ccccc34)ccn2)n1 [Example 158, 1-(3-(tert-butyl)-1-(p-tolyl)-1H-pyrazol-5-yl)-3-(4-((2-((6-(3-methoxyprop-1-yn-1-yl)pyrazin-2-yl)amino)pyridin-4-yl)methoxy)naphthalen-1-yl)urea]
11 | 330 | 16 | CNC(=O)c1cnc(Nc2cc(COc3ccc(NC(=O)Nc4cc(C(C)(C)C)nn4-c4cccc(C)c4)c4ccccc34)ccn2)cn1 [Example 204, 5-((4-(((4-(3-(3-(tert-butyl)-1-(m-tolyl)-1H-pyrazol-5-yl)ureido)naphthalen-1-yl)oxy)methyl)pyridin-2-yl)amino)-N-methylpyrazine-2-carboxamide]
12 | > 15900 | 14 | CC(C)c1cccc(-n2nc(C(C)(C)C)cc2NC(=O)Nc2ccc(OCc3ccnc(Nc4cnccn4)c3)c3ccccc23)c1 [Example 131, 1-(3-(tert-butyl)-1-(3-isopropylphenyl)-1H-pyrazol-5-yl)-3-(4-((2-(pyrazin-2-ylamino)pyridin-4-yl)methoxy)naphthalen-1-yl) urea]
13 | > 14900 | 23 | COCCOc1ccc(-n2nc(C(C)(C)C)cc2NC(=O)Nc2ccc(OCc3ccnc(Nc4cnccn4)c3)c3ccccc23)cc1C [Example 157, 1-(3-(tert-butyl)-1-(4-(2-methoxyethoxy)-3-methyl-phenyl)-1H-pyrazol-5-yl)-3-(4-((2-(pyrazin-2-ylamino)pyridin-4-yl)methoxy)naphthalen-1-yl) urea]
14 | 262 | 21 | COC1CCN(C(=O)c2cnc(Nc3cc(COc4ccc(NC(=O)Nc5cc(C(C)(C)C)nn5-c5ccc(C)cc5)c5ccccc45)ccn3)cn2)CC1 [Example 56]
15 | 146 | < 0.47 | CN(C)Cc1cccc(-n2nc(C(C)(C)C)cc2NC(=O)Nc2ccc(OCc3ccnc(Nc4cnccn4)c3)c3ccccc23)c1 [Example 261, 1-(3-(tert-butyl)-1-(3-((dimethylamino)methyl)phenyl)-1H-pyrazol-5-yl)-3-(4-((2-(pyrazin-2-ylamino)pyridin-4-yl)methoxy)naphthalen-1-yl)urea]
16 | 725 | 7.5 | CN(C)c1cncc(Nc2cc(COc3ccc(NC(=O)Nc4cc(C(C)(C)C)nn4-c4ccc(O)cc4)c4ccccc34)ccn2)n1 [Example 115, 1-(3-(tert-butyl)-1-(4-hydroxyphenyl)-1H-pyrazol-5-yl)-3-(4-((2-((6-(dimethyl-amino)pyrazin-2-yl)amino)pyridin-4-yl)methoxy)naphthalen-1-yl)urea]
17 | 250 | 17 | COCc1cnc(Nc2cc(COc3ccc(NC(=O)Nc4cc(C(C)(C)C)nn4-c4cccc(F)c4)c4ccccc34)ccn2)cn1 [Example 203, 1-(3-(tert-butyl)-1-(3-fluorophenyl)-1H-pyrazol-5-yl)-3-(4-((2-((5-(methoxymethyl)pyrazin-2-yl)amino)pyridin-4-yl)methoxy)naphthalen-1-yl) urea]
18 | > 13800 | 35 | COc1cc(-n2nc(C(C)(C)C)cc2NC(=O)Nc2ccc(OCc3ccnc(Nc4cnc(C(=O)N5CCCC5)cn4)c3)c3ccccc23)ccc1C [Example 226, 1-(3-(tert-butyl)-1-(3-methoxy-4-methylphenyl)-1H-pyrazol-5-yl)-3-(4-((2-((5-(pyrrolidine-1-carbonyl)pyrazin-2-yl)amino)pyridin-4-yl)methoxy)naphthalen-1-yl)urea]
19 | 32 | 5.6 | Cc1cccc(-n2nc(C(C)(C)C)cc2NC(=O)Nc2ccc(OCc3ccnc(Nc4cnc(CO)cn4)c3)c3ccccc23)c1 [Example 61]
20 | 144 | 14 | COCCN(C)C(=O)c1cnc(Nc2cc(COc3ccc(NC(=O)Nc4cc(C(C)(C)C)nn4-c4ccc(C)cc4)c4ccccc34)ccn2)cn1 [Example 60]
21 | 3730 | 58 | Cc1ccc(-n2nc(C(C)(C)C)cc2NC(=O)Nc2ccc(OCc3ccnc(Nc4cnc(C(=O)N5CCC(F)(F)CC5)cn4)c3)c3ccccc23)cc1 [Example 246, 1-(3-(tert-butyl)-1-(p-tolyl)-1H-pyrazol-5-yl)-3-(4-((2-((5-(4,4-difluoropiperidine-1-carbonyl)pyrazin-2-yl)amino)pyridin-4-yl)methoxy)naphthalen-1-yl)urea]
22 | 517 | 22 | COC1CCN(C(=O)c2cnc(Nc3cc(COc4ccc(NC(=O)Nc5cc(C(C)(C)C)nn5-c5cccc(C)c5)c5ccccc45)ccn3)cn2)CC1 [Example 206, 1-(3-(tert-butyl)-1-(m-tolyl)-1H-pyrazol-5-yl)-3-(4-((2-((5-(4-methoxypiperidine-1-carbonyl)pyrazin-2-yl)amino)pyridin-4-yl)methoxy)naphthalen-1-yl)urea]
23 | 80 | 12 | CC(=O)N1CCN(C(=O)c2cnc(Nc3cc(COc4ccc(NC(=O)Nc5cc(C(C)(C)C)nn5-c5ccc(C)cc5)c5ccccc45)ccn3)cn2)CC1 [Example 240, 1-(4-((2-((5-(4-acetyl-piperazine-1-carbonyl)pyrazin-2-yl)amino)pyridin-4-yl)methoxy)naphthalen-1-yl)-3-(3-(tert-butyl)-1-(p-tolyl)-1H-pyrazol-5-yl)urea]
